From patent publication US20220204510A1, “2,3-DIHYDRO-1H-PYRROLIZINE-7-FORMAMIDE DERIVATIVE AND APPLICATION THEREOF” (CHIA TAI TIANQING PHARMACEUTICAL GROUP CO., LTD., priority 2018, published 2022)

Key:
[1] = test system: HBV; test: qPCR test in the HBV in vitro test (HBV DNA in HepG2.2.15 cells); type: cell-based; details: Hepatitis B virus, 192 h, HBV DNA in HepG2.2.15 culture medium, day 8, read-out: Half maximal inhibitory concentration (EC50) of HBV
Procedure: To evaluate the inhibitory effect of the compound on HBV by detecting content of HBV DNA in HepG2.2.15 cells in a real-time qPCR test, with EC50 of the compound as an indicator.
3.1. HepG2.2.15 cells (4×10^4 cells/well) were inoculated into a 96-well plate and cultured at 37° C. in 5% CO2 overnight. 3.2. On day 2, the compound was 3-fold diluted in gradient for a total of 8 dilution gradients. The compound at different concentrations was added into the culture wells in duplicate. The final concentration of DMSO in the culture medium was 1%. 1 μM GLS4 was used as a 100% inhibition control (the structure of GLS4 disclosed in WO2008154817A1 is as follows:
1% DMSO was used as a 0% inhibition control. 3.3. On day 5, the culture medium was replaced with a fresh culture medium containing the compound. 3.4. On day 8, the culture medium in the culture wells was collected, and the high-throughput DNA purification kit (Qiagen-51162) was used to extract DNA. For specific steps, refer to the product manual.
3.6. Each well of the 96-well PCR plate was added with 15 μL of the reaction mixture, and then with 10 μL of sample DNA or HBV DNA standard. 3.7. The reaction conditions for PCR: heating at 95° C. for 10 min, degeneration at 95° C. for 15 s, and extension at 60° C. for 1 min, with a total of 40 cycles.
3.8.1. Calculation of the inhibition percentage: % Inh.=[1−(DNA copy number in the sample−DNA copy number in 1 μM GLS4)/(DNA copy number in the DMSO control−DNA copy number in 1 μM GLS4)]×100. 3.8.2. Calculation of EC50: half maximal inhibitory concentration (EC50) of the compound for HBV was calculated using GraphPad Prism software. 3.8.3.

[2] = target: T1, CYP2D6 (Homo sapiens, UniProt P10635); test: Inhibition of human liver microsomal cytochrome P450 isoenzymes; type: in vitro ADME; details: human liver microsomes
T1 construct: from tissue; host or cells: human liver microsomes
T1 sequence (P10635 whole entry): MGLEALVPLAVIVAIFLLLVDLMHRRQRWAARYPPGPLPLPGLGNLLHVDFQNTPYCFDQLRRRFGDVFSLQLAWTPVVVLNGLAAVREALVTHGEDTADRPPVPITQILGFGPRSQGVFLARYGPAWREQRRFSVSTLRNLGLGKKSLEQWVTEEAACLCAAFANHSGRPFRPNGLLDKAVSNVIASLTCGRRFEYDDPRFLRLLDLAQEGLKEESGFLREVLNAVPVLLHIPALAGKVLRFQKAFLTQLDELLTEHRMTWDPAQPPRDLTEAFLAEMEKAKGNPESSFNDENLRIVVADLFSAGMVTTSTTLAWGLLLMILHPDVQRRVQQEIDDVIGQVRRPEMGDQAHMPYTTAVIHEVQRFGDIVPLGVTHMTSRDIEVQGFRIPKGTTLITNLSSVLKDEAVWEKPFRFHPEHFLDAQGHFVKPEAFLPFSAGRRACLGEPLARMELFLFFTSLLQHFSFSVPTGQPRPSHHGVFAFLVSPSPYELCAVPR
Procedure: (§1) Experimental objective: to determine the inhibitory effect of the test compound on the activity of human liver microsomal cytochrome P450 isoenzymes (CYP1A2, CYP2C9, CYP2C19, CYP2D6 and CYP3A4). Experimental procedures: first, the test compound (10 mM) was diluted in gradient to prepare working solutions (100× final concentration) at concentrations of: 5, 1.5, 0.5, 0.15, 0.05, 0.015, and 0.005 mM, and working solutions of positive inhibitors for P450 isoenzymes (CYP1A2, CYP2C9, CYP2C19, CYP2D6, and CYP3A4) and the specific substrate mixtures thereof (5 in 1) were prepared simultaneously; human liver microsomes frozen in a−80° C. refrigerator were thawed on ice, and after all thawed, the human liver microsomes were diluted with PB to prepare a working solution at a specific concentration (0.253 mg/mL); 20 μL of the substrate mixture (20 μL of PB was added into the blank well) and 158 μL of the working solution of human liver microsomes were added into the reaction plate which was then placed on ice for use; then 2 μL of the test compound at each concentration (N=1) and a specific inhibitor (N=2) were added into the corresponding well, and the group without the inhibitor (test compound or the positive inhibitor) was added with a corresponding organic solvent as a control sample (the test compound control sample was 1:1 DMSO:MeOH; the positive control sample was 1:9 DMSO:MeOH); after pre-incubation under a 37° C. water bath for 10 min, 20 μL of a coenzyme factor (NADPH) solution was added into the reaction plate and incubated under a 37° C. water bath for 10 min, 400 μL of a cold acetonitrile solution (the internal standard was 200 ng/mL Tolbutamide and Labetalol) was added to terminate the reaction, and the reaction plate was placed on a shaker and shaken for 10 min; after centrifugation at 4,000 rpm for 20 min, 200 μL of the supernatant was collected and added to 100 μL of water to dilute the sample, and, finally, the plate was sealed, oscillated shaken evenly, and subjected to LC/MS/MS detection.

[3] = target: T2, CYP2C9 (Homo sapiens, UniProt P11712); test: as above; type: in vitro ADME; details: human liver microsomes
T2 construct: from tissue; host or cells: human liver microsomes
T2 sequence (P11712 whole entry): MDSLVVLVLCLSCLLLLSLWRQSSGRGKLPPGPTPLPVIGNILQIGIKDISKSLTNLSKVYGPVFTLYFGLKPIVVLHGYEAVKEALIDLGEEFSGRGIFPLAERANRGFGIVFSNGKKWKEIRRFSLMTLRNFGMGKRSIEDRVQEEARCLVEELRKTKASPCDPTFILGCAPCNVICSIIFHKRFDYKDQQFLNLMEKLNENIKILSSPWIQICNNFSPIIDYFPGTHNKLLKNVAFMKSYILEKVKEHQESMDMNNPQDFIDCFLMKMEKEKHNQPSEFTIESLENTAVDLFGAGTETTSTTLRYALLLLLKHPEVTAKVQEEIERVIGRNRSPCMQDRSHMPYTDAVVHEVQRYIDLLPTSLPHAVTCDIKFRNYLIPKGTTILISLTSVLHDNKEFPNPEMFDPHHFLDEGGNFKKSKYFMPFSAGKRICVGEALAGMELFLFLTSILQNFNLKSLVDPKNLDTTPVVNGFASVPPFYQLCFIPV
Procedure: as §1

[4] = target: T3, CYP2C19 (Homo sapiens, UniProt P33261); test: as above; type: in vitro ADME; details: human liver microsomes
T3 construct: from tissue; host or cells: human liver microsomes
T3 sequence (P33261 whole entry): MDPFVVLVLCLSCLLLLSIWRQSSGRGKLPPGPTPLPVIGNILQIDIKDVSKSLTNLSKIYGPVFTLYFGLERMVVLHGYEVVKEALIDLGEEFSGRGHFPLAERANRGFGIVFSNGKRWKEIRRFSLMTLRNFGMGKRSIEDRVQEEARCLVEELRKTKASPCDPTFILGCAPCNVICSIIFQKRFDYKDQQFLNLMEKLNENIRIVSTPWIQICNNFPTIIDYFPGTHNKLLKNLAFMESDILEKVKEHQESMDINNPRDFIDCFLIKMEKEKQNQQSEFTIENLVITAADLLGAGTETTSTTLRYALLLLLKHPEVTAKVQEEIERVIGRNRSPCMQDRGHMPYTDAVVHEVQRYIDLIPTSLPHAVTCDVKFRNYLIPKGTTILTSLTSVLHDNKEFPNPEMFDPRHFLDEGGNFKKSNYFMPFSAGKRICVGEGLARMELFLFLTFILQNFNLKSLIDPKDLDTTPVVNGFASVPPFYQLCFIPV
Procedure: as §1

[5] = Pharmacokinetic study in Balb/c mice by oral administration and intravenous injection; type: in vivo; details: mouse, plasma, Balb/c female mice; for bioavailability / AUC / Cmax / Tmax: 3 mg/kg; for bioavailability: PO (3 mpk) vs IV (1 mg/kg), read-out: Bioavailability F; for AUC / Cmax / Tmax: PO (3 mpk); for AUC: read-out: Area under the plasma concentration-time curve AUC; for Cmax: read-out: Peak concentration Cmax; for Tmax: read-out: Peak time Tmax; for Vd / AUC(0-t) / clearance / half-life: IV (1 mg/kg); for Vd: read-out: Apparent volume of distribution Vdss; for AUC(0-t): read-out: Area under the plasma concentration-time curve AUC0-24 h; for clearance: read-out: Clearance CL; for half-life: read-out: Half-life T1/2 (converted)
Procedure: Pharmacokinetic study of the test compound in Balb/c mice by oral administration and intravenous injection: The test compound was mixed with a solution containing dimethyl sulfoxide (10%), polyethylene glycol 400 (60%) and water (30%), and the mixture was vortexed and sonicated to prepare a 0.2 mg/mL clear solution, which was filtered through a millipore filter for later use. Balb/c female mice aged 7 to 10 weeks were intravenously injected with the candidate compound solution at a dose of 1 mg/kg. The test compound was mixed with an aqueous solution containing 10% polyoxyethylene stearate, and the mixture was vortexed and sonicated to prepare a 0.3 mg/mL clear solution for later use. Balb/c female mice aged 7 to 10 weeks were orally administered with the candidate compound solution at a dose of 3 mg/kg. Whole-blood was collected and plasma was prepared. Drug concentration was analyzed by LC-MS/MS and pharmacokinetic parameters were calculated with Phoenix WinNonlin software.

[6] = Experiment on the liver-to-blood ratio in Balb/c mice, oral administration; type: in vivo; details: oral 3 mg/kg, Balb/c female mice; for AUC0-last: Liver; for Kp / AUC(0-t): mouse; for Kp: liver (tissue homogenate) / plasma, read-out: AUC Ratio (L/P) Liver/plasma exposure ratio; for AUC(0-t): Plasma
Procedure: Experiment on the liver-to-blood ratio in Balb/c mice orally administered with the test compound Compound 18 was mixed with an aqueous solution containing 10% polyethylene glycol-15 hydroxystearate, and the mixture was vortexed and sonicated to prepare a 0.3 mg/mL uniform suspension for later use. Balb/c female mice aged 7 to 10 weeks were orally administered with the candidate compound solution at a dose of 3 mg/kg. Whole blood at a certain time point was collected and plasma was prepared. Liver tissues at the corresponding time point were collected to prepare a tissue homogenate. Drug concentration was analyzed by LC-MS/MS and pharmacokinetic parameters were calculated with Phoenix WinNonlin software. Compound 25 was mixed with an aqueous solution containing 10% polyethylene glycol-15 hydroxystearate, and the mixture was vortexed and sonicated to prepare a 0.3 mg/mL clear solution for later use. Balb/c female mice aged 7 to 10 weeks were orally administered with the candidate compound solution at a dose of 3 mg/kg. Whole blood at a certain time point was collected and plasma was prepared. Liver tissues at the corresponding time point were collected to prepare a tissue homogenate. Drug concentration was analyzed by LC-MS/MS and pharmacokinetic parameters were calculated with Phoenix WinNonlin software.

| Structure (SMILES) | EC50 [1] | IC50 [2] | IC50 [3] | IC50 [4] | bioavailability [5] | AUC [5] | Cmax [5] | Tmax [5] | Vd [5] | AUC(0-t) [5] | clearance [5] | half-life [5] | AUC0-last [6] | Kp [6] | AUC(0-t) [6] |
| --- | --- | --- | --- | --- | --- | --- | --- | --- | --- | --- | --- | --- | --- | --- | --- |
| C[C@]1(NC(=O)C(=O)c2c(Cl)c(C(=O)Nc3ccc(F)c(F)c3)c3n2CCC3)CC[C@H](CC(=O)O)CC1 [Compound 18] | 0.011 µM | > 50 µM | > 50 µM | > 50 µM | 271% | 5.02 µM·h | 1460 nM | 0.5 h | 8.8 L/kg | 0.617 µM·h | 50.1 mL/min/kg | 2.8 h | 75412 nmol·h/kg | 20.4 | 3.69 µM·h |
| C[C@]1(NC(=O)C(=O)c2c(Cl)c(C(=O)Nc3cc(F)c(F)c(F)c3)c3n2CCC3)CC[C@H](CC(=O)O)CC1 [Compound 25] | 0.004 µM | > 50 µM | > 50 µM | > 50 µM | 51% | 2.27 µM·h | 1480 nM | 0.5 h | 3.1 L/kg | 1.49 µM·h | 20 mL/min/kg | 1.95 h | 86036 nmol·h/kg | 24.7 | 3.48 µM·h |
